From patent US20250228882A1, “ORALLY-BIOAVAILABLE NUCLEOSIDE ANALOGS” (Venatorx Pharmaceuticals, Inc., priority 2022, published 2025)
Read-outs that look alike come from different tables or passages of the source.

Assay: Bidirectional Caco-2 permeability assay
Format: in vitro ADME
Conditions: human
Experimental: The bidirectional permeability of compounds across the Caco-2 cell monolayer was assessed. The Caco-2 model is a widely used in vitro model for small intestinal absorption and potential for efflux. Cell culture. Caco-2 cells were grown in DMEM supplemented with 10% fetal bovine serum (FBS), 1% Penicillin-Streptomycin and 1% MEMNEAA. The cells were incubated at 37° C., 5% CO2/95% air and saturated humidity. After reaching 80-90% confluency, the cells were gently detached with trypsin. Cells at passage 39 were seeded on the 24-well BD insert system at the density of 8×10^4 cells/cm^2 and cultured for 19 days with medium changed every 2-3 days. Measure the transepithelial electrical resistance (TEER) value of each well. The wells can be used only when their TEER values are greater than 600 Ohms/cm^2.
Transport assay. After removing the cell culture medium from the 24-well insert plate, the cells were rinsed with warm transport buffer. Appropriate dosing and receiving solutions were applied to the donor and receiver chambers to initiate the transport assay in apical to basolateral (A to B) or basolateral to apical (B to A) directions (500 and 1300 μL for apical and basolateral wells, respectively). Duplicate wells in each direction were used for the test compound and control compound. The plate was incubated in CO2 incubator at 37° C., with 5% CO2/95% air and saturated humidity without shaking. The sample after 10-minute incubation was used as the To sample, and the sample after 90-minute incubation was used as the T90 sample. To and T90 samples were collected from the donor and receiver side of each well at the designed timepoint, mixed with the transport buffer and acetonitrile/MeOH (1:1, v/v) and the internal standard for LC/MS/MS analysis. All samples were vortexed and centrifuged at 4000 rpm at 4° C. for 15 minutes, diluted with pure water and stored at 4° C. before bioanalysis by LC/MS/MS.
Sample analysis. The concentrations of test compounds and control compounds in Caco-2 cells were quantitatively determined by LC/MS/MS method after protein precipitation.
Calculations. The apparent permeability (Papp, cm/s), efflux ratio (ER) and recovery parameters were calculated for Caco-2 drug transport assay using the following equations: […]
where VR is the solution volume in the receiver chamber (0.4 mL on the apical side, 1.2 mL on the basolateral side); Area is the surface area for the insert membrane, i.e., 0.3 cm^2 for the area of the monolayer; Time is incubation time, expressed in seconds, i. e., 5400 s (90 min) for the current experiment; Co is the initial concentration of test compound or peak area ratio of control compounds in the donor chamber (M); VD is the volume in the donor chambers (0.4 mL on the apical side, 1.2 mL on the basolateral side); CD and CR are the final concentrations of test compounds or peak area ratio of control compounds in donor and receiver chambers, respectively.
Compounds with Papp<1.0 are classified as low permeability, Papp between 1-10 are classified as medium permeability, and Papp>10 are classified as high permeability. An efflux ratio (ER)>2 indicates the compounds are potential substrates for intestinal cell efflux transporters.

[1] = Caco-2 monolayer, apical to basolateral, 90-minute incubation, read-out: Papp, A-B
[2] = Caco-2 monolayer, basolateral to apical, 90-minute incubation, read-out: Papp, B-A
[3] = Caco-2 monolayer, ER>2 indicates potential efflux substrate, read-out: ER (efflux ratio)

Structure (SMILES) | Papp A→B at 90 min [1] [nm/s] | Papp B→A at 90 min [2] [nm/s] | efflux ratio at 90 min [3] | Papp A→B at 90 min (Caco-2) [nm/s] | Papp B→A at 90 min (Caco-2) [nm/s] | efflux ratio at 90 min (Caco-2)
CC(C)NC(=O)Nc1ncnn2c([C@]3(C#N)O[C@H](COC(=O)Cc4ccccc4)[C@@H](OC(=O)[C@@H](N)C(C)(C)C)[C@H]3O)ccc12 [Compound 29, (2R,3S,4R,5R)-5-cyano-4-hydroxy-5-(4-(3-isopropylureido)pyrrolo[2,1-f][1,2,4]triazin-7-yl)-2-((2-phenylacetoxy)methyl)tetrahydrofuran-3-yl (S)-2-amino-3,3-dimethylbutanoate] | 16.9 | 196 | 11.6 |  |  | 
CC(C)[C@@H](C)C(=O)Nc1ncnn2c([C@]3(C#N)O[C@H](COC(=O)CC4CCCCC4)[C@@H](OC(=O)[C@@H](N)C(C)(C)C)[C@H]3O)ccc12 [Compound 14, (2R,3S,4R,5R)-5-cyano-2-((2-cyclohexylacetoxy)methyl)-5-(4-((R)-2,3-dimethylbutanamido)pyrrolo[2,1-f][1,2,4]triazin-7-yl)-4-hydroxytetrahydrofuran-3-yl (S)-2-amino-3,3-dimethylbutanoate] |  |  |  | 19.6 | 13.8 | 0.7
CCOC(C)(C)C(=O)Nc1ncnn2c([C@]3(C#N)O[C@H](COC(=O)CC4CCCCCC4)[C@@H](OC(=O)[C@@H](N)C(C)(C)C)[C@H]3O)ccc12 [Compound 67, (2R,3S,4R,5R)-5-cyano-2-((2-cycloheptylacetoxy)methyl)-5-(4-(2-ethoxy-2-methylpropanamido)pyrrolo[2,1-f][1,2,4]triazin-7-yl)-4-hydroxytetrahydrofuran-3-yl (S)-2-amino-3,3-dimethylbutanoate] |  |  |  | 47.8 | 25.4 | 0.53
COC(C)(C)C(=O)Nc1ncnn2c([C@]3(C#N)O[C@H](COC(=O)Cc4ccccc4)[C@@H](OC(=O)[C@@H](N)C(C)(C)C)[C@H]3O)ccc12 [Compound 5, (2R,3S,4R,5R)-5-cyano-4-hydroxy-5-(4-(2-methoxy-2-methylpropanamido)pyrrolo[2,1-f][1,2,4]triazin-7-yl)-2-((2-phenylacetoxy)methyl)tetrahydrofuran-3-yl (S)-2-amino-3,3-dimethylbutanoate] | 177 | 165 | 0.93 |  |  | 
COC(C)(C)C(=O)Nc1ncnn2c([C@]3(C#N)O[C@H](COC(=O)CC4CCCCC4)[C@@H](OC(=O)[C@H](N)C(C)(C)C)[C@H]3O)ccc12 [Compound 68, (2R,3S,4R,5R)-5-cyano-2-((2-cyclohexylacetoxy)methyl)-4-hydroxy-5-(4-(2-methoxy-2-methylpropanamido)pyrrolo[2,1-f][1,2,4]triazin-7-yl)tetrahydrofuran-3-yl (R)-2-amino-3,3-dimethylbutanoate] |  |  |  | 32.2 | 40.4 | 1.25
CCC(CC)C(=O)Nc1ncnn2c([C@]3(C#N)O[C@H](COC(=O)CC4CCCC4)[C@@H](OC(=O)[C@H](N)C(C)(C)C)[C@H]3O)ccc12 [Compound 76, (2R,3S,4R,5R)-5-cyano-2-((2-cyclopentylacetoxy)methyl)-5-(4-(2-ethylbutanamido)pyrrolo[2,1-f][1,2,4]triazin-7-yl)-4-hydroxytetrahydrofuran-3-yl (R)-2-amino-3,3-dimethylbutanoate] |  |  |  | 25 | 24 | 1
CCCCC(=O)Nc1ncnn2c([C@]3(C#N)O[C@H](COC(=O)CC4CCCCCC4)[C@@H](OC(=O)[C@@H](N)C(C)(C)C)[C@H]3O)ccc12 [Compound 61, (2R,3S,4R,5R)-5-cyano-2-((2-cycloheptylacetoxy)methyl)-4-hydroxy-5-(4-pentanamidopyrrolo[2,1-f][1,2,4]triazin-7-yl)tetrahydrofuran-3-yl (S)-2-amino-3,3-dimethylbutanoate] |  |  |  | 10.7 | 6.5 | 0.6
CCOC(C)(C)C(=O)Nc1ncnn2c([C@]3(C#N)O[C@H](COC(=O)CC4CCC4)[C@@H](OC(=O)[C@@H](N)C(C)(C)C)[C@H]3O)ccc12 [Compound 49, (2R,3S,4R,5R)-5-cyano-2-((2-cyclobutylacetoxy)methyl)-5-(4-(2-ethoxy-2-methylpropanamido)pyrrolo[2,1-f][1,2,4]triazin-7-yl)-4-hydroxytetrahydrofuran-3-yl (S)-2-amino-3,3-dimethylbutanoate] |  |  |  | 62.4 | 56.7 | 0.91
CCC(CC)C(=O)Nc1ncnn2c([C@]3(C#N)O[C@H](COC(=O)Cc4ccccc4)[C@@H](OC(=O)[C@@H](N)C(C)(C)C)[C@H]3O)ccc12 [Compound 8, (2R,3S,4R,5R)-5-cyano-5-(4-(2-ethylbutanamido)pyrrolo[2,1-f][1,2,4]triazin-7-yl)-4-hydroxy-2-((2-phenylacetoxy)methyl)tetrahydrofuran-3-yl (S)-2-amino-3,3-dimethylbutanoate] | 5.2 | 1.3 | 0.26 |  |  | 
CC(C)[C@@H](C)C(=O)Nc1ncnn2c([C@]3(C#N)O[C@H](COC(=O)Cc4ccccc4)[C@@H](OC(=O)[C@@H](N)C(C)(C)C)[C@H]3O)ccc12 [Compound 21, (2R,3S,4R,5R)-5-cyano-5-(4-((R)-2,3-dimethylbutanamido)pyrrolo[2,1-f][1,2,4]triazin-7-yl)-4-hydroxy-2-((2-phenylacetoxy)methyl)tetrahydrofuran-3-yl (S)-2-amino-3,3-dimethylbutanoate] | 31 | 210 | 6.77 |  |  | 
CC(=O)OCOC(=O)Nc1ncnn2c([C@]3(C#N)O[C@H](COC(=O)[C@@H](N)C(C)(C)C)[C@@H](OC(=O)CC4CCCCC4)[C@H]3O)ccc12 [Compound 36, ((2R,3S,4R,5R)-5-(4-(((acetoxymethoxy)carbonyl)amino)pyrrolo[2,1-f][1,2,4]triazin-7-yl)-5-cyano-3-(2-cyclohexylacetoxy)-4-hydroxytetrahydrofuran-2-yl)methyl (S)-2-amino-3,3-dimethylbutanoate] |  |  |  | 9.3 | 11.5 | 1.24
CCCCOC(C)(C)C(=O)Nc1ncnn2c([C@]3(C#N)O[C@H](COC(=O)CC4CCCC4)[C@@H](OC(=O)[C@@H](N)C(C)(C)C)[C@H]3O)ccc12 [Compound 71, (2R,3S,4R,5R)-5-(4-(2-butoxy-2-methylpropanamido)pyrrolo[2,1-f][1,2,4]triazin-7-yl)-5-cyano-2-((2-cyclopentylacetoxy)methyl)-4-hydroxytetrahydrofuran-3-yl(S)-2-amino-3,3-dimethylbutanoate] |  |  |  | 6.7 | 81.8 | 12.1
CCCCC(=O)Nc1ncnn2c([C@]3(C#N)O[C@H](COC(=O)CC4CCCC4)[C@@H](OC(=O)[C@@H](N)C(C)(C)C)[C@H]3O)ccc12 [Compound 54, (2R,3S,4R,5R)-5-cyano-2-((2-cyclopentylacetoxy)methyl)-4-hydroxy-5-(4-pentanamidopyrrolo[2,1-f][1,2,4]triazin-7-yl)tetrahydrofuran-3-yl (S)-2-amino-3,3-dimethylbutanoate] |  |  |  | 34.1 | 54.7 | 1.6
CC[C@@H](C)C(=O)Nc1ncnn2c([C@]3(C#N)O[C@H](COC(=O)CC4CCCCC4)[C@@H](OC(=O)[C@@H](N)C(C)(C)C)[C@H]3O)ccc12 [Compound 12, (2R,3S,4R,5R)-5-cyano-2-((2-cyclohexylacetoxy)methyl)-4-hydroxy-5-(4-((R)-2-methylbutanamido)pyrrolo[2,1-f][1,2,4]triazin-7-yl)tetrahydrofuran-3-yl (S)-2-amino-3,3-dimethylbutanoate] |  |  |  | 34.8 | 255 | 7.34
CC(C)(C)[C@H](N)C(=O)OC[C@H]1O[C@@](C#N)(c2ccc3c(NC(=O)CC4CCCCC4)ncnn23)[C@H](O)[C@@H]1O [Compound 39, ((2R,3S,4R,5R)-5-cyano-5-(4-(2-cyclohexylacetamido)pyrrolo[2,1-f][1,2,4]triazin-7-yl)-3,4-dihydroxytetrahydrofuran-2-yl)methyl (S)-2-amino-3,3-dimethylbutanoate] |  |  |  | 7.2 | 169 | 23.4
